According to patent publication US20200261440A1, “ZINC IONOPHORES AND USES THEREOF” (THE UNIVERSITY OF QUEENSLAND, priority 2017, published 2020):
≈ marks a conversion by molar mass, not a printed value. Entries after “also recorded” stand apart in the source; their conditions may differ. Like-named read-outs stand apart in the source and are kept apart here.

Key:
[1] = tested on: Klebsiella pneumoniae strain MS6771; experiment: MIC by broth microdilution (CLSI); type: cell-based; details: for MIC: Klebsiella pneumoniae; for antibiotic sensitivity of resistant strain: Klebsiella pneumoniae MS6771, addition of sub-inhibitory PBT2+zinc(II) ions
[2] = tested on: Streptococcus pneumoniae 23F; experiment: MIC by broth microdilution (CLSI); type: cell-based
[3] = tested on: Methicillin-resistant Staphylococcus aureus (MRSA) strain USA300; experiment: MIC by broth microdilution (CLSI); details: for MIC: Staphylococcus aureus; for antibiotic sensitivity of resistant strain: addition of sub-inhibitory PBT2+zinc(II) ions
Protocol: GAS HKU16, MRSA USA300, VRE RBWH1, Klebsiella pneumoniae strain MS6771, E. coli strain MS8345 and Streptococcus pneumoniae strain 23F were grown in Todd-Hewitt broth (THB) or agar with 1% yeast extract (THY) [Todd, E. W. & Hewitt, L. F. A new culture medium for the production of antigenic streptococcal haemolysin. […] Bacteria were routinely grown at 37° C. in ambient air.
MICs were determined by broth microdilution in accordance to CLSI guidelines (“Methods for Dilution Antimicrobial Susceptibility Tests for Bacteria That Grow Aerobically”, Clinical and Laboratory Standards Institute) [Clinical and Laboratory Standards Institute. […] For MRSA, VRE, Klebsiella pneumoniae and E. coli the assays were performed in MHB, and for GAS and Streptococcus pneumoniae MHB+2.5% lysed horse blood (LHB) was used. The bacterial inoculum was prepared by direct colony suspension aiming for 2-8×10^5 colony forming units (CFU)/mL bacteria per well. Antibiotics/compounds were serially diluted two-fold across the 96-well plate, the last column contained no antibiotics/compounds. The inoculum was added to the plate containing antibiotic/compound and incubated for 16-24 h at 35+/−2° C. […] MIC assays were carried out in biological triplicates.
Using Clinical and Laboratory Standards Institute guidelines for antimicrobial sensitivity testing [Clinical and Laboratory Standards Institute.

[4] = tested on: GAS strain HKU16 (Streptococcus pyogenes strain HKU16); experiment: microbe, parasite or virus in culture; type: cell-based; details: GAS
Protocol: (§1) J. Path. Bact. […] Proc. Soc.
(§2) MIC assays were carried out in biological triplicates.
(§3) M100 Performance Standards for Antimicrobial Susceptibility Testing, 27th Edition.

[5] = tested on: Vancomycin-resistant Enterococci (VRE) clinical isolate RBWH1; experiment: MIC by broth microdilution (CLSI); type: cell-based, Enterococcus; details: Enterococcus, VRE, read-out: MIC
Protocol: as §1, §2, §3

[6] = MS6771, Klebsiella pneumoniae, CQ: 0 μM, Zinc: 0 μM, read-out: MIC
[7] = MS6771, Klebsiella pneumoniae, CQ: 64 μM, Zinc: 256 μM, read-out: MIC
[8] = MS6771, Klebsiella pneumoniae, CQ: 64 μM, read-out: MIC
[9] = MS6771, Klebsiella pneumoniae, PBT2: 0 μM, Zinc: 0 μM, read-out: MIC
[10] = MS6771, Klebsiella pneumoniae, PBT2: 64 μM, Zinc: 256 μM, read-out: MIC
[11] = MS6771, Klebsiella pneumoniae, PBT2: 64 μM, read-out: MIC
[12] = MS6771, Klebsiella pneumoniae, Zinc: 256 μM (CQ panel), read-out: MIC
[13] = MS6771, Klebsiella pneumoniae, Zinc: 256 μM (PBT2 panel), read-out: MIC
[14] = MRSA|USA300, MRSA USA300, CQ: 0.75 μM, Zinc: 16 μM, +2% NaCl
[15] = MRSA|USA300, MRSA USA300, PBT2: 2 μM, Zinc: 25 μM, +2% NaCl
[16] = MRSA|USA300, MRSA, RA-HQ-12: 3.5 μM, oxacillin with 2% NaCl

Compound	MIC [1, 6] [µg/mL]	MIC [1, 7] [µg/mL]	MIC [1, 8] [µg/mL]	MIC [1, 9] [µg/mL]	MIC [1, 10] [µg/mL]	MIC [1, 11] [µg/mL]	MIC [1, 12] [µg/mL]	MIC [1, 13] [µg/mL]	further results
CC(C)(O/N=C(\C(=O)N[C@@H]1C(=O)N2C(C(=O)[O-])=C(C[n+]3ccccc3)CS[C@H]12)c1csc(N)n1)C(=O)O [Ceftazidime, ceftazidime]	32 (≈ 58.5 µM)	16 (≈ 29.3 µM)	16 (≈ 29.3 µM)	32 (≈ 58.5 µM)	32 (≈ 58.5 µM)	32 (≈ 58.5 µM)	32 (≈ 58.5 µM)	32 (≈ 58.5 µM)	–
CN(C)c1cc(NC(=O)CNC(C)(C)C)c(O)c2c1C[C@H]1C[C@H]3[C@H](N(C)C)C(O)=C(C(N)=O)C(=O)[C@@]3(O)C(O)=C1C2=O [Tigecycline, tigecycline]	–	–	–	–	–	–	–	–	antibiotic sensitivity of resistant strain [1]: became sensitive; MIC ([1]; MS6771, Klebsiella pneumoniae, CQ: 0 μM, Zinc: 0 μM): 4 µg/mL (≈ 6.83 µM); MIC ([1]; MS6771, Klebsiella pneumoniae, CQ: 64 μM): 4 µg/mL (≈ 6.83 µM); MIC ([1]; MS6771, Klebsiella pneumoniae, CQ: 64 μM, Zinc: 256 μM): 4 µg/mL (≈ 6.83 µM); MIC ([1]; MS6771, Klebsiella pneumoniae, PBT2: 0 μM, Zinc: 0 μM): 4 µg/mL (≈ 6.83 µM); MIC ([1]; MS6771, Klebsiella pneumoniae, PBT2: 64 μM): 2 µg/mL (≈ 3.41 µM); MIC ([1]; MS6771, Klebsiella pneumoniae, PBT2: 64 μM, Zinc: 256 μM): 2 µg/mL (≈ 3.41 µM); MIC ([1]; MS6771, Klebsiella pneumoniae, Zinc: 256 μM (CQ panel)): 4 µg/mL (≈ 6.83 µM); MIC ([1]; MS6771, Klebsiella pneumoniae, Zinc: 256 μM (PBT2 panel)): 4 µg/mL (≈ 6.83 µM)
gentamicin	–	–	–	–	–	–	–	–	MIC ([2]; PBT2: 0 μM, Zinc: 0 μM): 64 µg/mL; MIC ([2]; PBT2: 8 μM): 4 µg/mL; MIC ([2]; PBT2: 8 μM, Zinc: 32 μM): 1 µg/mL; MIC ([2]; Zinc: 32 μM): 64 µg/mL
NCC[C@H](O)C(=O)N[C@@H]1C[C@H](N)[C@@H](O[C@H]2O[C@H](CN)[C@@H](O)[C@H](O)[C@H]2O)[C@H](O)[C@H]1O[C@H]1O[C@H](CO)[C@@H](O)[C@H](N)[C@H]1O [Amikacin, amikacin]	> 128	> 128	> 128	> 128	> 128	> 128	> 128	> 128	antibiotic sensitivity of resistant strain [1]: not
COc1cccc(OC)c1C(=O)N[C@@H]1C(=O)N2[C@@H]1SC(C)(C)[C@@H]2C(=O)O [Methicillin, methicillin]	–	–	–	–	–	–	–	–	MIC ([3]; MRSA USA300, CQ: 0 μM, Zinc: 0 μM, +2% NaCl): > 128 µg/mL; MIC ([3]; MRSA USA300, CQ: 0.75 μM, +2% NaCl): > 128 µg/mL; MIC ([3]; MRSA USA300, PBT2: 2 μM, +2% NaCl): > 128 µg/mL; MIC ([3]; MRSA USA300, Zinc: 16 μM, +2% NaCl): > 128 µg/mL; MIC ([3]; MRSA USA300, Zinc: 25 μM, +2% NaCl): > 128 µg/mL; MIC [3, 14]: > 128 µg/mL; MIC ([3]; MRSA|USA300, MRSA USA300, PBT2: 0 μM, Zinc: 0 μM, +2% NaCl): > 128 µg/mL; MIC [3, 15]: > 128 µg/mL
Cc1onc(-c2ccccc2)c1C(=O)N[C@@H]1C(=O)N2[C@@H]1SC(C)(C)[C@@H]2C(=O)O [Oxacillin, oxacillin]	–	–	–	–	–	–	–	–	antibiotic sensitivity of resistant strain ([3]; MRSA USA300): became sensitive; MIC [3, 14]: 0.5 to 1 µg/mL (≈ 1.25 to 2.49 µM); MIC [3, 15]: 1 to 2 µg/mL (≈ 2.49 to 4.98 µM); MIC ([4]; RA-HQ-12: 3.5 μM): 0.125 µg/mL (≈ 0.311 µM)
CC[C@H]1OC(=O)[C@H](C)[C@@H](O[C@H]2C[C@@](C)(OC)[C@@H](O)[C@H](C)O2)[C@H](C)[C@@H](O[C@@H]2O[C@H](C)C[C@H](N(C)C)[C@H]2O)[C@](C)(O)C[C@@H](C)CN(C)[C@H](C)[C@@H](O)[C@]1(C)O [Azithromycin, azithromycin]	–	–	–	–	–	–	–	–	MIC ([5]; RA-HQ-12: 3.5 μM, Zn: […]): > 128 µg/mL; MIC ([5]; RA-HQ-12: 3.5 μM): > 128 µg/mL; MIC ([5]; Zn: […] (RA-HQ-12 panel)): > 128 µg/mL; MIC ([5]; RA-HQ-12: 0 μM, Zn: 0 μM): > 128 µg/mL; MIC [3]: 128 µg/mL (≈ 171 µM); MIC ([3]; MRSA|USA300, MRSA, RA-HQ-12: 3.5 μM, Zn: […], oxacillin with 2% NaCl): 32 µg/mL (≈ 42.7 µM); MIC [3, 16]: 64 µg/mL (≈ 85.4 µM); MIC ([1]; MS6771, K. pneumoniae, RA-HQ-12: 0 μM, Zn: 0 μM, read-out: MIC): 32 µg/mL (≈ 42.7 µM); MIC ([1]; MS6771, K. pneumoniae, RA-HQ-12: 16 μM, Zn: 64 μM, read-out: MIC): 32 µg/mL (≈ 42.7 µM); MIC ([1]; MS6771, K. pneumoniae, RA-HQ-12: 16 μM, read-out: MIC): 32 µg/mL (≈ 42.7 µM); MIC ([1]; MS6771, K. pneumoniae, Zn: 64 μM, read-out: MIC): 32 µg/mL (≈ 42.7 µM); MIC ([4]; Streptococcus pyogenes, RA-HQ-12: 0 μM, Zn: 0 μM, read-out: MIC): > 128 µg/mL
CC[C@H]1OC(=O)[C@H](C)[C@@H](O[C@H]2C[C@@](C)(OC)[C@@H](O)[C@H](C)O2)[C@H](C)[C@@H](O[C@@H]2O[C@H](C)C[C@H](N(C)C)[C@H]2O)[C@](C)(O)C[C@@H](C)C(=O)[C@H](C)[C@@H](O)[C@]1(C)O [Erythromycin, erythromycin]	–	–	–	–	–	–	–	–	antibiotic sensitivity of resistant strain ([3]; MRSA USA300): became sensitive; also recorded: reversed; MIC ([3]; MRSA USA300, CQ: 0 μM, Zinc: 0 μM): 64 µg/mL (≈ 87.2 µM); MIC ([3]; MRSA USA300, CQ: 1 μM): 64 µg/mL (≈ 87.2 µM); MIC ([3]; MRSA USA300, CQ: 1 μM, Zinc: 32 μM): 1 µg/mL (≈ 1.36 µM); MIC ([3]; MRSA USA300, PBT2: 0 μM, Zinc: 0 μM): 64 µg/mL (≈ 87.2 µM); MIC ([3]; MRSA USA300, PBT2: 2 μM): 32 µg/mL (≈ 43.6 µM); MIC ([3]; MRSA USA300, PBT2: 2 μM, Zinc: 50 μM): 0.5 µg/mL (≈ 0.681 µM); MIC ([3]; MRSA USA300, Zinc: 32 μM): 64 µg/mL (≈ 87.2 µM); MIC ([3]; MRSA USA300, Zinc: 50 μM): 64 µg/mL (≈ 87.2 µM); MIC [3, 16]: 64 µg/mL (≈ 87.2 µM)
C[C@H]1c2cccc(O)c2C(=O)C2=C(O)[C@]3(O)C(=O)C(C(N)=O)=C(O)[C@@H](N(C)C)[C@@H]3[C@@H](O)[C@@H]21 [Doxycycline, doxycycline]	8 to 16 (≈ 18 to 36 µM)	8 (≈ 18 µM)	8 (≈ 18 µM)	8 to 16 (≈ 18 to 36 µM)	4 (≈ 9 µM)	4 to 8 (≈ 9 to 18 µM)	8 to 16 (≈ 18 to 36 µM)	8 to 16 (≈ 18 to 36 µM)	–
C[C@@H](O)[C@H]1C(=O)N2C(C(=O)O)=C(S[C@@H]3CN[C@H](C(=O)N(C)C)C3)[C@H](C)[C@H]12 [Meropenem, meropenem]	64 (≈ 167 µM)	8 to 16 (≈ 20.9 to 41.7 µM)	8 to 16 (≈ 20.9 to 41.7 µM)	64 (≈ 167 µM)	16 (≈ 41.7 µM)	32 (≈ 83.4 µM)	16 to 32 (≈ 41.7 to 83.4 µM)	16 to 32 (≈ 41.7 to 83.4 µM)	–
COc1cc(Cc2cnc(N)nc2N)cc(OC)c1OC [Trimethoprim, trimethoprim]	> 128	> 128	> 128	> 128	> 128	> 128	> 128	> 128	–
CCO/N=C(\C(=O)N[C@@H]1C(=O)N2C(C(=O)[O-])=C(Sc3nc(-c4cc[n+](C)cc4)cs3)CS[C@H]12)c1nsc(N)n1 [Ceftaroline]	> 128	> 128	> 128	> 128	> 128	> 128	> 128	> 128	–
CO[C@@]1(NC(=O)Cc2cccs2)C(=O)N2C(C(=O)O)=C(COC(N)=O)CS[C@@H]21 [Cefoxitin, cefoxitin]	128 (≈ 299 µM)	64 (≈ 150 µM)	64 (≈ 150 µM)	128 (≈ 299 µM)	64 (≈ 150 µM)	64 (≈ 150 µM)	128 (≈ 299 µM)	128 (≈ 299 µM)	–
